# Measurements: ChEMBL document CHEMBL4130459, “3,5-Dimethylorsellinic Acid Derived Meroterpenoids from Penicillium chrysogenum MT-12, an Endophytic Fungus Isolated from Huperzia serrata” (J Nat Prod, 2017)
# pIC50: −log10 of the molar value.
# What was measured:
# [1] = system: RAW264.7; test: Inhibition of LPS-induced nitric oxide production in mouse RAW264.7 cells after 24 hrs by Griess assay; assay type: functional, cell-based; settings: RAW264.7, 24 h
# [2] = system: RAW264.7; test: Cytotoxicity against mouse RAW264.7 cells by MTT assay; assay type: cell-based
# [3] = system: RAW264.7; test: Inhibition of LPS-induced nitric oxide production in mouse RAW264.7 cells at 80 uM after 24 hrs by Griess assay relative to control; assay type: functional; settings: RAW264.7, 24 h
Compound,pIC50 [1],Activity [2],inhibition at 80 µM [3]
COC(=O)[C@]12C(=O)[C@@H](C)O[C@@H]3OC(=O)[C@](C)(C[C@@H]4[C@]1(C)CC=C1C(=CC(=O)OC1(C)C)[C@@]4(C)O)[C@@H]32,4.11,Non-Toxic,
C[C@H]1OC(=O)[C@@]23[C@@H]4[C@H]5OC(=O)[C@]4(C)C[C@@H]4[C@]2(C)[C@H](C=C2C(=CC(=O)OC2(C)C)[C@@]42CO2)O[C@@]13O5,,,< 50%
COC(=O)[C@]1(C)O[C@H]2OC(=O)[C@@H]3[C@H]2[C@@](C)(C[C@H]2C(C)=C4CC(=O)OC(C)(C)C4=CC[C@]32C)C1=O,,,< 50%
C[C@H]1O[C@@H]2OC(=O)[C@]3(C)C[C@@H]4[C@@]5(C)C(=C1O[C@H]5C=C1C(=CC(=O)OC1(C)C)[C@@]41CO1)[C@]23O,4.62,Non-Toxic,
COC(=O)[C@]12C[C@@](C)(O)C(=O)[C@](C)(C[C@H]3C(C)=C4CC(=O)OC(C)(C)C4=CC[C@@]31C)[C@]21CO1,,,< 50%
C[C@H]1O[C@@H]2OC(=O)[C@]3(C)C[C@@H]4[C@@]5(C)C(=C1O[C@H]5C=C1C(=CC(=O)OC1(C)C)[C@@]41CO1)[C@H]23,,,< 50%
COC(=O)[C@]12C(=O)[C@@H](C)O[C@@H]3OC(=O)[C@](C)(C[C@H]4[C@]5(CO5)C5=CC(=O)OC(C)(C)[C@]56O[C@@H]6C[C@@]41C)[C@@H]32,,,< 50%
COC(=O)[C@]12C(=O)[C@@H](C)O[C@@H]3OC(=O)[C@](C)(C[C@H]4C(C)=C5CC(=O)OC(C)(C)C5=CC[C@@]41C)[C@@H]32,,,< 50%
C[C@@H]1O[C@H]2OC(=O)[C@@]3(C)C[C@H]4[C@@](C)(C(=O)C=C5C(=CC(=O)OC5(C)C)[C@]45CO5)[C@@H](C1=O)[C@@]23O,4.90,Non-Toxic,
COC(=O)[C@]12C(=O)[C@H](C)O[C@@H]3OC(=O)[C@](C)(C[C@H]4[C@]5(CO5)C5=CC(=O)OC(C)(C)C5=CC[C@@]41C)[C@@H]32 [BERKELEYACETAL B],,,< 50%
C[C@@H]1O[C@@H]2OC(=O)[C@]3(C)C[C@@H]4[C@](C)(C(=O)C=C5C(=CC(=O)OC5(C)C)[C@@]45CO5)[C@H](C1=O)[C@H]23 [BERKELEYACETAL C],5.37,Non-Toxic,
C=C1[C@@]2(C)C[C@H]3C(C)=C4CC(=O)OC(C)(C)C4=CC[C@]3(C)[C@]1(C(=O)OC)C(=O)[C@@](C)(O)C2=O [BERKELEYDIONE],,,< 50%
C=C1[C@@]2(C)C[C@@H]3[C@](C)(CC=C4C(C)(C)OC(=O)CC[C@]43C)[C@]1(C(=O)OC)C(=O)[C@@](C)(O)C2=O [BERKELEYONE B],,,< 50%
COc1ccc2c(c1)c(CC(=O)O)c(C)n2C(=O)c1ccc(Cl)cc1 [INDOMETHACIN],4.47,,
